The record followed here is ChEMBL document CHEMBL5380862, “Unsymmetrical Phosphodiesters as GPR84 Antagonists with High Blood Exposure for the Treatment of Lung Inflammation” (J Med Chem, 2023).

Active and inactive are the calls of the source. The rule behind the calls is not given here.

The nature of data set [1]: Aqueous solubility of the compound incubated overnight by HPLC-DAD analysis. It is filed as physicochemical. The settings on record: aqueous medium.
For data set [2], the target named is Delta-type opioid receptor (Homo sapiens) (UniProt P41143). The experiment in a line: Antagonist activity at DOR (unknown origin) expressed in CHO-K1 cells co-expressing Galpha16 assessed as inhibition of DPDPE induced calcium response upto 100 uM incubated for 10 mins by calcium mobilization assay. It is filed as functional, cell-based. (A change in cytosolic calcium serves as a functional read-out for many receptors and channels.)
Chain of Delta-type opioid receptor (Homo sapiens) (P41143 whole entry): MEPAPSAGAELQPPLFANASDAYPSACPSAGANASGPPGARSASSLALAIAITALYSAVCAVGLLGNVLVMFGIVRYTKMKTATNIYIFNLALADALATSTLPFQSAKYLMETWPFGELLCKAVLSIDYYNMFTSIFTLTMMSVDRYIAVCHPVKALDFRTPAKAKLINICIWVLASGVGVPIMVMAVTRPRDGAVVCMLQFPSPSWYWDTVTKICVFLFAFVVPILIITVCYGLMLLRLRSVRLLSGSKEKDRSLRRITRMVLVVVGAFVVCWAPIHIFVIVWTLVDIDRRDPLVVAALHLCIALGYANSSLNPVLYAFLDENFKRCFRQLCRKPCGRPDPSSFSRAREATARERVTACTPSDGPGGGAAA

Data set [3] has as its target T1, Glucose-dependent insulinotropic receptor (Homo sapiens) (UniProt Q8TDV5).
T1 sequence (whole entry): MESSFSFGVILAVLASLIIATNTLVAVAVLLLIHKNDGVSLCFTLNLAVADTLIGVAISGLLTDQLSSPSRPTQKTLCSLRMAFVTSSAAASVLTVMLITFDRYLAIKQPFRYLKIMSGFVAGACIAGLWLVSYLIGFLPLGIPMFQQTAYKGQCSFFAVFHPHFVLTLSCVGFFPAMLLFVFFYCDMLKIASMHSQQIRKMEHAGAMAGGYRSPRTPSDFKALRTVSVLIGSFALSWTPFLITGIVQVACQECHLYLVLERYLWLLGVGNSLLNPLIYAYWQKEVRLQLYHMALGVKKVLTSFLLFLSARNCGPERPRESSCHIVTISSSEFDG
The experiment in a line: Antagonist activity at GPR119 (unknown origin) expressed in HEK293 cells assessed as inhibition of AR231453 induced […] upto 100 uM pre-incubated for 10 mins followed by AR231453 addition and measured after 15 mins by cAMP detection assay. The settings on record: time 25.0 min. The class given is functional, cell-based.

Data set [4] is described as follows: Drug distribution in mouse lung at 5 mg/kg, po administered as single dose and measured after 0.5 hrs by LC-MS analysis. The class given is ADME, organism-based. The settings on record: read-out: Drug uptake.
The nature of data set [5]: Drug distribution in mouse liver at 5 mg/kg, po administered as single dose and measured after 0.5 hrs by LC-MS analysis. The class given is ADME, organism-based. The settings on record: read-out: Drug uptake.
Data set [6] is described as follows: Drug distribution in mouse plasma at 5 mg/kg, po administered as single dose and measured after 0.5 hrs by LC-MS analysis. It is filed as ADME, organism-based.
Data set [7] in a line: Drug distribution in mouse liver at 5 mg/kg, po administered as single dose and measured after 8 hrs by LC-MS analysis. It is filed as ADME, organism-based. The settings on record: read-out: Drug uptake.
Data set [8] addresses Beta-1 adrenergic receptor (Homo sapiens) (UniProt P08588). The experiment in a line: Antagonist activity at ARbeta1 (unknown origin) expressed in HEK293 cells co-expressing Galpha16 assessed as inhibition of Isoproterenol induced calcium response upto 100 uM incubated for 10 mins by calcium mobilization assay. The class given is functional, cell-based.
Data set [9] in a line: AUClast in ICR mouse at 5 mg/kg, po administered as single dose. The class given is ADME, organism-based. On the set-up: dose 5 mg/kg, route po. The settings on record: in vivo.
Data set [10] concerns the target T2, Alpha-1A adrenergic receptor (Homo sapiens) (UniProt P35348).
T2 sequence (whole entry): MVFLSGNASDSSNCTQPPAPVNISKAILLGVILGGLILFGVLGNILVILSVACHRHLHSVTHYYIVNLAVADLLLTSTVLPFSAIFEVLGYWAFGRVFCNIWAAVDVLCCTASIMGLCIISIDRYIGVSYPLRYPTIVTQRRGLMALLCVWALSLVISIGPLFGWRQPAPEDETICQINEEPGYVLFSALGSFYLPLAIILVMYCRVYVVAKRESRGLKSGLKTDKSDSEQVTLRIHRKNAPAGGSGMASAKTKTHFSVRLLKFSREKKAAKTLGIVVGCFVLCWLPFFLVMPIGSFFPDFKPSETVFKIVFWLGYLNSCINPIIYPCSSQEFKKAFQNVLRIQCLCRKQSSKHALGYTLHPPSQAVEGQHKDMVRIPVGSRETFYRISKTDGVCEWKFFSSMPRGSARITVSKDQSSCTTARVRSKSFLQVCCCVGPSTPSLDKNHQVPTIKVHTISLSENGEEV
In words: Antagonist activity at ARalpha1A (unknown origin) expressed in HEK293 cells co-expressing Galpha16 assessed as inhibition of Phenylephrine induced calcium response upto 100 uM incubated for 10 mins by calcium mobilization assay. It is filed as functional, cell-based.

Data set [11] deals with Kappa-type opioid receptor (Homo sapiens) (UniProt P41145). The experiment in a line: Antagonist activity at KOR (unknown origin) expressed in HEK293 cells co-expressing Galpha16 assessed as inhibition of U50488 induced calcium response upto 100 uM incubated for 10 mins by calcium mobilization assay. The class given is functional, cell-based.
Chain of Kappa-type opioid receptor (Homo sapiens) (P41145 whole entry): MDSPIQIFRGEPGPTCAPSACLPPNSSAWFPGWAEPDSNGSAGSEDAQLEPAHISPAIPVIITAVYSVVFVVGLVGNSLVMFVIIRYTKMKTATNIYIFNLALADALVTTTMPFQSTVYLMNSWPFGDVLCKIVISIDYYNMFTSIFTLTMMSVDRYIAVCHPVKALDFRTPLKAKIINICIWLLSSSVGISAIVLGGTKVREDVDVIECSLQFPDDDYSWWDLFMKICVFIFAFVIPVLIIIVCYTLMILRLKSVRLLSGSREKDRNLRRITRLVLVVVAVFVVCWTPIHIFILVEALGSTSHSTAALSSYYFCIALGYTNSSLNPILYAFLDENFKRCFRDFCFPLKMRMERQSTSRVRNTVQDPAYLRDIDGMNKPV
The nature of data set [12]: Drug distribution in mouse plasma at 5 mg/kg, po administered as single dose and measured after 2 hrs by LC-MS analysis. It is filed as ADME, organism-based.
Data set [13] concerns the target T3, Free fatty acid receptor 4 (Homo sapiens) (UniProt Q5NUL3).
T3 sequence (whole entry): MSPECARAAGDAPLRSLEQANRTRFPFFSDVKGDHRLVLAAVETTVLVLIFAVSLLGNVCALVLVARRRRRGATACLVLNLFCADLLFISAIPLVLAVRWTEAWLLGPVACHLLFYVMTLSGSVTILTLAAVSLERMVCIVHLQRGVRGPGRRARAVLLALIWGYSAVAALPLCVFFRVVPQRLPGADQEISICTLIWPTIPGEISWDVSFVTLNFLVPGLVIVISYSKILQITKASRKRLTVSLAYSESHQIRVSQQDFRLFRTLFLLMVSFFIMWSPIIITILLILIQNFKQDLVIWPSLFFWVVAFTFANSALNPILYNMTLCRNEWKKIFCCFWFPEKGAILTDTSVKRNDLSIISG
The experiment in a line: Antagonist activity at GPR120 (unknown origin) expressed in HEK293 cells co-expressing Galpha16 assessed as inhibition of TUG-981 induced calcium response upto 100 uM incubated for 10 mins by calcium mobilization assay. The class given is functional, cell-based.

The subject of data set [14] is Neutrophil. In words: Inhibition of cell migration in 6-n-[…]-stimulated mouse CD11bpositive Ly6Gpositive neutrophils at 0.01 to 1 uM incubated for 1.5 hrs by flow cytometric analysis. The class given is functional, cell-based. The settings on record: dose 0.01-1 µM. For orientation: In flow cytometry, cells or beads pass a laser one at a time.
Data set [15] has as its target Free fatty acid receptor 1 (Homo sapiens) (UniProt O14842). In words: Antagonist activity at GPR40 (unknown origin) expressed in HEK293 cells co-expressing Galpha16 assessed as inhibition of TAK-875 induced calcium response upto 100 uM incubated for 10 mins by calcium mobilization assay. It is filed as functional, cell-based.
Data set [16] deals with Monocyte. In words: Inhibition of cell migration in 3-hydroxydodecanoic acid-stimulated mouse CD11bpositive Ly6Cpositive monocytes at 0.01 to 1 uM incubated for 1.5 hrs by flow cytometric analysis. The settings on record: dose 0.01-1 µM. The class given is functional, cell-based.
Data set [17] addresses Beta-3 adrenergic receptor (Homo sapiens) (UniProt P13945). In words: Antagonist activity at ARbeta3 (unknown origin) expressed in HEK293 cells co-expressing Galpha16 assessed as inhibition of Isoproterenol induced calcium response upto 100 uM incubated for 10 mins by calcium mobilization assay. The class given is functional, cell-based.
A short description of data set [18]: Drug distribution in mouse brain at 5 mg/kg, po administered as single dose and measured after 2 hrs by LC-MS analysis. The settings on record: read-out: Drug uptake. It is filed as ADME, organism-based.
Data set [19] in a line: Drug distribution in mouse plasma at 5 mg/kg, po administered as single dose and measured after 8 hrs by LC-MS analysis. The settings on record: read-out: Drug uptake. It is filed as ADME, organism-based.
Data set [20] can be described thus: Oral bioavailability in ICR mouse at 5 mg/kg administered as single dose. The class given is ADME, organism-based. The settings on record: in vivo.
The nature of data set [21]: Drug distribution in mouse brain at 5 mg/kg, po administered as single dose and measured after 0.5 hrs by LC-MS analysis. It is filed as ADME, organism-based. The settings on record: read-out: Drug uptake.
For data set [22], the target named is D(1A) dopamine receptor (Homo sapiens) (UniProt P21728). In words: Antagonist activity at DRD1 (unknown origin) expressed in HEK293 cells co-expressing Galpha16 assessed as inhibition of dopamine induced calcium response upto 100 uM incubated for 10 mins by calcium mobilization assay. It is filed as functional, cell-based.
Chain of D(1A) dopamine receptor (Homo sapiens) (P21728 whole entry): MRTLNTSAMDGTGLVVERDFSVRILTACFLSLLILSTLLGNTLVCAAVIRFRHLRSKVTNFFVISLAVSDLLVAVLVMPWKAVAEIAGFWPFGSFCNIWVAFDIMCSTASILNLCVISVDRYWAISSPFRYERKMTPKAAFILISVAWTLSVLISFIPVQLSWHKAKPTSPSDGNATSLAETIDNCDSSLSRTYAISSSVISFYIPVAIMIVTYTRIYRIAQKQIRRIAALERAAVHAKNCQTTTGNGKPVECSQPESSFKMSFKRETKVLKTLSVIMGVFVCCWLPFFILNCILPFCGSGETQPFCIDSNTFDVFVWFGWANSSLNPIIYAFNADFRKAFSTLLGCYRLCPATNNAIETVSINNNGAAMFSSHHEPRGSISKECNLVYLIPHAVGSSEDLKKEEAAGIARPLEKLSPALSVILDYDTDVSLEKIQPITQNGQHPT

Chain of Beta-1 adrenergic receptor (Homo sapiens) (P08588 whole entry, looked up): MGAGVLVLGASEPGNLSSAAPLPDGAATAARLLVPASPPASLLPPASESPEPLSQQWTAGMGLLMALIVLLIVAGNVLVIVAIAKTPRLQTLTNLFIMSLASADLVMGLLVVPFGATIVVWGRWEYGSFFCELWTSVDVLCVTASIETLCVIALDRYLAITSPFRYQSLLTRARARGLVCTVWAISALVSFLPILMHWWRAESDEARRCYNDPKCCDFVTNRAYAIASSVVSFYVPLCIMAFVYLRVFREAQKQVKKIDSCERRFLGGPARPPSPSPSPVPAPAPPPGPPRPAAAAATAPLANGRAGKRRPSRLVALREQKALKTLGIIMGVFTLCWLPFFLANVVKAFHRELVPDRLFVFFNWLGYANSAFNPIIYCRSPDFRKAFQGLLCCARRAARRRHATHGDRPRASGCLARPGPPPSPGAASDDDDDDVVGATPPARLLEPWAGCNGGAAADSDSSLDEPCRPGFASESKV
Chain of Free fatty acid receptor 1 (Homo sapiens) (O14842 whole entry): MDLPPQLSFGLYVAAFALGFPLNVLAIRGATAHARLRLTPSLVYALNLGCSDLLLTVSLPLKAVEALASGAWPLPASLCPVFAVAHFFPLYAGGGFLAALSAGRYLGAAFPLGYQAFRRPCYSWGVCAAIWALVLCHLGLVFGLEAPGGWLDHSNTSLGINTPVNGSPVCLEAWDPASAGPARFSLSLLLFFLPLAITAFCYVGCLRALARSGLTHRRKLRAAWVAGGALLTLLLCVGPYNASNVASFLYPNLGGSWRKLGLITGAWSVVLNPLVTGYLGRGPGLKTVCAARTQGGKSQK
Chain of Beta-3 adrenergic receptor (Homo sapiens) (P13945 whole entry, looked up): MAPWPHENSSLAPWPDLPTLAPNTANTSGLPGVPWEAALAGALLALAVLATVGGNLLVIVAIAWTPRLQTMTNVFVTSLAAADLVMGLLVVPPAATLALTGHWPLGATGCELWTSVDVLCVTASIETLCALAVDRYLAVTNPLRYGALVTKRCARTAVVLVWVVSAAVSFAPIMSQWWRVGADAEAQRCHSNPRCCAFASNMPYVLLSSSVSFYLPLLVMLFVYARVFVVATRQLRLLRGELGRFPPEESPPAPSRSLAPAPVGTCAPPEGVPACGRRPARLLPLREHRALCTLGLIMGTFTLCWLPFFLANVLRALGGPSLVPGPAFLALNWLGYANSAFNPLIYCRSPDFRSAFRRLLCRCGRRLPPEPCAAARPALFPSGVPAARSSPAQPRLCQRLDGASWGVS

Usually solubility stands for how much of the substance goes into solution per volume. In general, AUC(0-t) refers to the area under the concentration-time curve up to a stated or last time point. A higher AUC(0-t) goes with more exposure. One may read the bioavailability as the share of a dose that reaches the circulation, judged against a reference dose that is usually intravenous. Lower therefore signals little systemic uptake. In data set [1], `O=P([O-])(OC1=Cc2c(Cl)cccc2Sc2ccccc21)OC1=Cc2c(Cl)cccc2Sc2ccccc21.[Na+]` displayed a solubility of 891 µg/mL. The inhibition entry in data set [2], in data set [3], in data set [8], in [10], in data set [11] and in [13] was “inactive” in each case. For the same compound, the inhibition entry in [15], in data set [17] and in data set [22] was “inactive” throughout. Further, the concentration at 0.5 h in [4] amounted to 18.6 ng/g; in [5], 297 ng/g; in data set [6] it was 135 ng/mL; in data set [21] it was 6.8 ng/g. Further, the figures for the concentration at 8 h in data set [7] and in [19] were 1180 ng/g and 50.7 ng/mL, respectively. Besides, in [9], the AUC(0-t) stood at 502 ng·h/mL. Besides, the concentration at 2 h in [12] was 393 ng/mL; in data set [18], 6.3 ng/g. The inhibition result in data set [14] and in [16] was “Active” in each case. In data set [20], the bioavailability was 12%.
